Measured values: PubChem BioAssay (NCI)
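Values below derive from 48-hour exposures of cells grown in 96-well plates, with endpoints linearly interpolated between the two concentrations bracketing the appropriate inhibition level. At the GI50, growth is halved. TGI marks complete inhibition of growth.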

What was measured:
Test in all cases: NCI-60 cell line screen, 48 h; in the data active means GI50 below about 0.43 µM; inactive means the rest
DU-145 prostate = test system: DU-145 prostate
SNB-75 CNS = test system: SNB-75 CNS
SN12C renal = test system: SN12C renal
SF-268 CNS = test system: SF-268 CNS
SF-539 CNS = test system: SF-539 CNS
HCT-15 colon = test system: HCT-15 colon
786-0 renal = test system: 786-0 renal
UACC-62 melanoma = test system: UACC-62 melanoma
BT-549 breast = test system: BT-549 breast
OVCAR-5 ovarian = test system: OVCAR-5 ovarian
CAKI-1 renal = test system: CAKI-1 renal
SW-620 colon = test system: SW-620 colon
NCI-H23 lung = test system: NCI-H23 lung
MCF7 breast = test system: MCF7 breast
RPMI-8226 leukemia = test system: RPMI-8226 leukemia
OVCAR-4 ovarian = test system: OVCAR-4 ovarian
MOLT-4 leukemia = test system: MOLT-4 leukemia
NCI-H522 lung = test system: NCI-H522 lung
NCI-H226 lung = test system: NCI-H226 lung
UO-31 renal = test system: UO-31 renal
SK-OV-3 ovarian = test system: SK-OV-3 ovarian
NCI-H460 lung = test system: NCI-H460 lung
LOX IMVI melanoma = test system: LOX IMVI melanoma
SK-MEL-2 melanoma = test system: SK-MEL-2 melanoma
RXF 393 renal = test system: RXF 393 renal
A498 renal = test system: A498 renal
KM12 colon = test system: KM12 colon
COLO 205 colon = test system: COLO 205 colon
SNB-19 CNS = test system: SNB-19 CNS
M14 melanoma = test system: M14 melanoma
K-562 leukemia = test system: K-562 leukemia
HS 578T breast = test system: HS 578T breast
PC-3 prostate = test system: PC-3 prostate
EKVX NSCLC = test system: EKVX NSCLC
SK-MEL-28 melanoma = test system: SK-MEL-28 melanoma
MDA-MB-231 breast = test system: MDA-MB-231 breast
TK-10 renal = test system: TK-10 renal
CCRF-CEM leukemia = test system: CCRF-CEM leukemia
A549 NSCLC = test system: A549 NSCLC
HOP-92 NSCLC = test system: HOP-92 NSCLC
MALME-3M melanoma = test system: MALME-3M melanoma
ACHN renal = test system: ACHN renal
SK-MEL-5 melanoma = test system: SK-MEL-5 melanoma
SR leukemia = test system: SR leukemia
HOP-62 NSCLC = test system: HOP-62 NSCLC
HCC-2998 colon = test system: HCC-2998 colon
OVCAR-3 ovarian = test system: OVCAR-3 ovarian
SF-295 CNS = test system: SF-295 CNS
UACC-257 melanoma = test system: UACC-257 melanoma
MDA-MB-435 = test system: MDA-MB-435
HCT-116 colon = test system: HCT-116 colon
T-47D breast = test system: T-47D breast
HT29 colon = test system: HT29 colon
OVCAR-8 ovarian = test system: OVCAR-8 ovarian
NCI/ADR-RES ovarian = test system: NCI/ADR-RES ovarian
U251 CNS = test system: U251 CNS
HL-60(TB) leukemia = test system: HL-60(TB) leukemia
IGROV1 ovarian = test system: IGROV1 ovarian
MDA-N = test system: MDA-N

CC(=Nc1ccc(S(N)(=O)=O)cc1)c1c(O)[nH]c2ccccc12
inactive: GI50 (DU-145 prostate) > 25 µM | GI50 (SNB-75 CNS) > 25 µM | GI50 (SN12C renal) > 25 µM | GI50 (SF-268 CNS) > 25 µM | GI50 (SF-539 CNS) > 25 µM | GI50 (HCT-15 colon) > 25 µM | GI50 (786-0 renal) > 25 µM | GI50 (UACC-62 melanoma) > 25 µM | GI50 (BT-549 breast) > 25 µM | GI50 (OVCAR-5 ovarian) > 25 µM | GI50 (CAKI-1 renal) 17.1 µM | GI50 (SW-620 colon) > 18.5 µM | GI50 (NCI-H23 lung) > 25 µM | GI50 (MCF7 breast) > 17.5 µM | GI50 (RPMI-8226 leukemia) > 25 µM | GI50 (OVCAR-4 ovarian) > 25 µM | GI50 (MOLT-4 leukemia) > 25 µM | GI50 (NCI-H522 lung) > 25 µM | GI50 (NCI-H226 lung) > 23.6 µM | GI50 (UO-31 renal) 7.37 µM | GI50 (SK-OV-3 ovarian) > 12.2 µM | GI50 (NCI-H460 lung) > 23.9 µM | GI50 (LOX IMVI melanoma) > 25 µM | GI50 (SK-MEL-2 melanoma) > 25 µM | GI50 (RXF 393 renal) > 25 µM | GI50 (A498 renal) > 25 µM | GI50 (KM12 colon) 0.872 µM | GI50 (COLO 205 colon) > 16 µM | GI50 (SNB-19 CNS) > 25 µM | GI50 (M14 melanoma) > 25 µM | GI50 (K-562 leukemia) > 25 µM | GI50 (HS 578T breast) > 25 µM | GI50 (PC-3 prostate) > 25 µM | GI50 (EKVX NSCLC) > 25 µM | GI50 (SK-MEL-28 melanoma) > 25 µM | GI50 (MDA-MB-231 breast) > 25 µM | GI50 (TK-10 renal) > 25 µM | GI50 (CCRF-CEM leukemia) > 25 µM | GI50 (A549 NSCLC) > 25 µM | GI50 (HOP-92 NSCLC) > 25 µM | GI50 (MALME-3M melanoma) > 25 µM | GI50 (ACHN renal) > 25 µM | GI50 (SK-MEL-5 melanoma) > 25 µM | GI50 (SR leukemia) > 25 µM | GI50 (HOP-62 NSCLC) > 14.5 µM | GI50 (HCC-2998 colon) > 25 µM | GI50 (OVCAR-3 ovarian) > 25 µM | GI50 (SF-295 CNS) > 25 µM | GI50 (UACC-257 melanoma) > 25 µM | GI50 (MDA-MB-435) > 25 µM | GI50 (HCT-116 colon) > 22.8 µM | GI50 (T-47D breast) > 8.37 µM | GI50 (HT29 colon) > 25 µM | GI50 (OVCAR-8 ovarian) > 25 µM | GI50 (NCI/ADR-RES ovarian) > 25 µM | GI50 (U251 CNS) > 25 µM | GI50 (HL-60(TB) leukemia) > 25 µM | GI50 (IGROV1 ovarian) > 25 µM
> 25 µM: TGI (DU-145 prostate) | TGI (SNB-75 CNS) | TGI (SN12C renal) | TGI (SF-268 CNS) | TGI (SF-539 CNS) | TGI (HCT-15 colon) | TGI (786-0 renal) | TGI (UACC-62 melanoma) | TGI (BT-549 breast) | TGI (OVCAR-5 ovarian) | TGI (CAKI-1 renal) | TGI (SW-620 colon) | TGI (NCI-H23 lung) | TGI (MCF7 breast) | TGI (RPMI-8226 leukemia) | TGI (OVCAR-4 ovarian) | TGI (MOLT-4 leukemia) | TGI (NCI-H522 lung) | TGI (NCI-H226 lung) | TGI (UO-31 renal) | TGI (SK-OV-3 ovarian) | TGI (NCI-H460 lung) | TGI (LOX IMVI melanoma) | TGI (SK-MEL-2 melanoma) | TGI (RXF 393 renal) | TGI (A498 renal) | TGI (KM12 colon) | TGI (COLO 205 colon) | TGI (SNB-19 CNS) | TGI (M14 melanoma) | TGI (K-562 leukemia) | TGI (HS 578T breast) | TGI (PC-3 prostate) | TGI (EKVX NSCLC) | TGI (SK-MEL-28 melanoma) | TGI (MDA-MB-231 breast) | TGI (TK-10 renal) | TGI (CCRF-CEM leukemia) | TGI (A549 NSCLC) | TGI (HOP-92 NSCLC) | TGI (MALME-3M melanoma) | TGI (ACHN renal) | TGI (SK-MEL-5 melanoma) | TGI (SR leukemia) | TGI (HOP-62 NSCLC) | TGI (HCC-2998 colon) | TGI (OVCAR-3 ovarian) | TGI (SF-295 CNS) | TGI (UACC-257 melanoma) | TGI (MDA-MB-435) | TGI (HCT-116 colon) | TGI (T-47D breast) | TGI (HT29 colon) | TGI (OVCAR-8 ovarian) | TGI (NCI/ADR-RES ovarian) | TGI (U251 CNS) | TGI (HL-60(TB) leukemia) | TGI (IGROV1 ovarian)

COc1ccc([C@H]2C=[N+]([O-])O[C@H](OC3CCCC3)[C@@H]2OC(C)=O)cc1OC
69.2 µM: TGI (MDA-N)
40.6 µM: TGI (UO-31 renal)
29.8 µM: TGI (RXF 393 renal)
53.2 µM: TGI (T-47D breast)
44.4 µM: TGI (M14 melanoma)
78.5 µM: TGI (HCT-15 colon) | TGI (HS 578T breast)
78.2 µM: TGI (MDA-MB-231 breast)
29.3 µM: TGI (CAKI-1 renal)
67.5 µM: TGI (MDA-MB-435)
63.6 µM: TGI (NCI/ADR-RES ovarian)
51.2 µM: TGI (MALME-3M melanoma)
88.4 µM: TGI (ACHN renal)
72.8 µM: TGI (HCC-2998 colon)
89.6 µM: TGI (DU-145 prostate)
39.1 µM: TGI (HL-60(TB) leukemia)
62.2 µM: TGI (OVCAR-8 ovarian)
44.2 µM: TGI (SK-MEL-28 melanoma)
30.9 µM: TGI (COLO 205 colon)
> 100 µM: TGI (SNB-75 CNS) | TGI (SF-268 CNS) | TGI (RPMI-8226 leukemia) | TGI (OVCAR-4 ovarian) | TGI (MOLT-4 leukemia) | TGI (NCI-H226 lung) | TGI (SK-OV-3 ovarian) | TGI (NCI-H460 lung) | TGI (SK-MEL-2 melanoma) | TGI (A498 renal) | TGI (SNB-19 CNS) | TGI (K-562 leukemia) | TGI (PC-3 prostate) | TGI (A549 NSCLC) | TGI (SR leukemia) | TGI (HOP-62 NSCLC) | TGI (SF-295 CNS) | TGI (U251 CNS)
32.9 µM: TGI (HOP-92 NSCLC)
57.2 µM: TGI (NCI-H23 lung)
17.9 µM: TGI (NCI-H522 lung)
50.2 µM: TGI (EKVX NSCLC)
72.4 µM: TGI (KM12 colon) | TGI (OVCAR-3 ovarian)
54.3 µM: TGI (UACC-257 melanoma)
77.7 µM: TGI (UACC-62 melanoma)
52.4 µM: TGI (IGROV1 ovarian)
31.3 µM: TGI (LOX IMVI melanoma)
20.1 µM: TGI (CCRF-CEM leukemia)
38 µM: TGI (SF-539 CNS)
68.2 µM: TGI (TK-10 renal)
53 µM: TGI (SW-620 colon)
54.7 µM: TGI (HT29 colon)
49.5 µM: TGI (MCF7 breast)
29.6 µM: TGI (SK-MEL-5 melanoma)
